Measurements published in patent US10188661B2, “Topical dosage regimen” (Topokine Therapeutics, Inc., priority 2014, dated 2019).
Like-named read-outs stand apart in the source and are kept apart here.

Key:
[1] = 91-day once-daily latanoprost ointment, plasma PK after last dose in minipigs; format: in vivo; settings: both sexes, topical or ocular, 0.5 % w/w; minipig, topical (percutaneous) latanoprost; first-order fit of 24, 48, 72 h plasma values; read-out: terminal elimination half-life
Description: A pharmacokinetic (PK) experiment was conducted on male and female minipigs (n=6 per sex). Ointment comprising latanoprost 0.5% w/w in a vehicle comprising petroleum jelly and isopropyl myristate was applied once daily for 91 days to skin over 10% of body surface area. After the last topical application, plasma PK was assessed by sampling all animals through 24 hours, and in 2 animals per sex over for an additional 48 hours.
(See Sjoquist B et al., The pharmacokinetics of a new antiglaucoma drug, latanoprost, in the rabbit, Drug Metabol […] 1998; 26:745-754; and Sjoquist B and Stjernschantz J, Ocular and systemic pharmacokinetics of latanoprost in humans, Surv Ophthalmol 2002; 47:S6-S12).

[2] = cited from earlier work
[3] = humans; cited from earlier work
[4] = system: lower lid steatoblepharon; assay: Randomized, double-masked, placebo-controlled trial of latanoprost ointment on lower eyelids (steatoblepharon); format: in vivo, human; settings: adults, lower eyelids once nightly, washed after 8-10 hours, 10 weeks
Description: A randomized, double-masked, placebo-controlled trial of latanoprost ointment applied to lower eyelids was conducted with adult men and women with lower lid steatoblepharon, i.e., eye bags. Participants received a kit comprising a tube of latanoprost ointment and instructions to apply the topical composition to the lower eyelids once nightly at bedtime. Participants were instructed to wash the lower eyelids 8-10 hours after ointment application, so as to remove the ointment or residue thereof. Treatment continued for 10 weeks.

excess submental fat = assay: Randomized, double-blind, placebo-controlled trial of topical latanoprost on the submental area; format: in vivo, human; settings: adults, submental skin 50 cm^2, applied at bedtime, washed after 8-10 hours, 42 days
Description: A randomized, double-blind, placebo-controlled trial of topical latanoprost applied to the submental area was conducted with adult men and women with excess submental fat. In one cohort, participants were randomized to receive latanoprost in an ethanol-based composition, or a matching placebo composition. In another cohort, participants were randomized to receive latanoprost in a petroleum jelly-based composition, or a matching placebo composition. The composition was applied at bedtime to a controlled 50 cm^2 area of submental skin. Participants were instructed to wash the 50 cm^2 area after 8-10 hours, so as to remove the composition. Treatment continued for 42 days.

subcutaneous fat = assay: 42-day once-daily topical latanoprost trial in minipigs: reduction of subcutaneous fat (microscopy, ImageJ); format: in vivo; settings: minipig, 42 days
Description: A randomized, placebo-controlled trial of topical latanoprost was conducted on male and female minipigs. Animals were randomized to no treatment, placebo (vehicle only), latanoprost 0.16%, or latanoprost 0.8% in an emulsion consisting essentially of water, poloxamer, lecithin, and isopropyl palmitate. The treatment was applied once daily to a 400 cm^2 area on the dorsum, with a semi-occlusive dressing. Treatment continued for 42 days.
Animals received a full panel of local and systemic safety assessments over the course of the study. Plasma toxicokinetics (TK) were assessed at various timepoints. After 42 days of treatment, animals were sacrificed. Samples of skin and subcutaneous fat were dissected from the treatment area in a controlled fashion and submitted for microscopic examination by a veterinary pathologist who was not informed of the compound tested or its therapeutic purpose.
Reduction of subcutaneous fat thickness was quantified using ImageJ software. In the high-dose group the mean reduction was 2.2 cubic centimeters of fat per 100 cm^2 of treated skin.

Row | Structure (SMILES) | half-life [1] [min] | half-life ([2]; after intravenous administration) [min] | half-life ([2]; after ocular administration) [min] | half-life ([2]; latanoprost administered intravenously or ophthalmically) [min] | half-life in plasma [3] | tolerability [4] | tolerability (excess submental fat) | subcutaneous fat on microscopic examination (subcutaneous fat; 0.16% and 0.8% once daily) | mean reduction of subcutaneous fat (subcutaneous fat; high-dose group)
1 | O=C(O)CCC/C=C\C[C@@H]1[C@@H](CC[C@@H](O)CCc2ccccc2)[C@H](O)C[C@@H]1O [latanoprost free acid] | 1080 to 1440 | 9 to 17 | 17 to 85 | 9 to 85 | – | – | – | – | –
2 | CC(C)OC(=O)CCC/C=C\C[C@@H]1[C@@H](CC[C@@H](O)CCc2ccccc2)[C@H](O)C[C@@H]1O [latanoprost] | – | – | – | – | about 17 minutes | well tolerated | well tolerated | Dose-dependent depletion of subcutaneous fat | 2.2 cubic centimeters of fat per 100 cm^2 of treated skin
